Laboratory results from patent US7019007B2 (Syntex (U.S.A.) LLC, priority 2001, dated 2006).
pIC50: −log10 of the molar value.

Each compound was assayed against T1, CCR-3 receptor (Homo sapiens, UniProt P51677) (assay: CCR-3 Receptor Binding Assay - In Vitro (inhibition of 125I eotaxin binding to CCR-3 L1.2 transfectant cells)). Conditions: inhibition of binding of 125I-eotaxin to CCR-3 L1.2 transfectant cells, 1 hour at room temperature.
T1 construct: expressed in transfected cells; host or cells: L1.2 (murine pre-B lymphoma line) stably transfected with CCR-3
T1 sequence (P51677 1-355): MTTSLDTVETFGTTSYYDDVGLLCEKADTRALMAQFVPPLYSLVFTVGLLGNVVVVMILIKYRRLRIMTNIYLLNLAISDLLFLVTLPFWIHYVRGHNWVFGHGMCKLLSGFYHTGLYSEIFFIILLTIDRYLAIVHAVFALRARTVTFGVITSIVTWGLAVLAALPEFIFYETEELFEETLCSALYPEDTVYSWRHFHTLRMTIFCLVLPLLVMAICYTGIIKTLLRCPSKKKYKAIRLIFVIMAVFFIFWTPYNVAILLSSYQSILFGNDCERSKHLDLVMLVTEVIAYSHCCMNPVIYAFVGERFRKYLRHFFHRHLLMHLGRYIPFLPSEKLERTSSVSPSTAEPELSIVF
Procedure: The CCR-3 antagonistic activity of the compounds of the invention was determined by their ability to inhibit the binding of ^125 I eotaxin to CCR-3 L1.2 transfectant cells (see Ponath, P. D. et al., J. Exp. Med., Vol. 183, 2437–2448, (1996)).
The assay was performed in Costar 96-well polypropylene round bottom plates. Test compounds were dissolved in DMSO and then diluted with binding buffer (50 mM HEPES, 1 mM CaCl2, 5 mM MgCl2, 0.5% bovine serum albumin (BSA), 0.02% sodium azide, pH 7.24) such that the final DMSO concentration was 2%. 25 μl of the test solution or only buffer with DMSO (control samples) was added to each well, followed by the addition of 25 μl of ^125I-eotaxin ([…]) (NEX314, New England Nuclear, Boston, Mass.) and 1.5×10^5 of the CCR-3 L1.2 transfected cells in 25 μl binding buffer. The final reaction volume was 75 μl.
After incubating the reaction mixture for 1 hour at room temperature, the reaction was terminated by filtering the reaction mixture through polyethylenimine treated Packard Unifilter GF/C filter plate (Packard, Chicago, Ill.). The filters were washed four times with ice cold wash buffer containing 10 mm HEPES and 0.5M sodium chloride (pH 7.2) and dried at 65° C. for approximately 10 minutes. 25 μl/well of Microscint-20® scintillation fluid (Packard) was added and the radioactivity retained on the filters was determined by using the Packard TopCount®.

SMILES	pIC50
CC(C)NC(=O)N[C@@H]1CCC[C@H]1N1CCC(Cc2ccc(Cl)cc2)CC1	6.05
C=CCNC(=O)N[C@@H]1CCC[C@H]1N1CCC(Cc2ccc(Cl)cc2)CC1	6.30
O=C(NC1CCCCC1)N[C@@H]1CCC[C@H]1N1CCC(Cc2ccc(Cl)cc2)CC1	6.40
O=C(N[C@@H]1CCC[C@H]1N1CCC(Cc2ccc(Cl)cc2)CC1)C1CCCCC1 [Cyclohexanecarboxylic acid {(1R,2R)-2-[4-(4-chloro-benzyl)-piperidin-1-yl]-cyclopentyl}-amide]	5.54

The remaining lines, values ahead:

pIC50	SMILES
6.29	CCCCNC(=O)N[C@@H]1CCC[C@H]1N1CCC(Cc2ccc(Cl)cc2)CC1
6.14	CCOC(=O)CCNC(=O)N[C@@H]1CCC[C@H]1N1CCC(Cc2ccc(Cl)cc2)CC1
